The test system of one assay is THP-1 cells. Nature of the assay: TNFα generation assay. Conditions: Homo sapiens, THP-1, THP-1 cells; Table 22; read-out: IC50 in TNFα generation assay. Type of assay: cell-based, human. In short, it runs like this: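 THP-1 cells differentiated to macrophage-like cells with 10 ng/ml IFN-γ for 2 days, preincubated with compound 30 min at room temperature, then cultured 7 h on plates coated with human IgG (10 μg/ml). Secreted TNFα measured by ELISA or AlphaLISA.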

Assay [1] addresses T1, glutathione S-transferase (GST)-fused full-length human Syk protein (Homo sapiens, UniProt P43405).
T1 construct: (GST)-fused full-length human Syk protein; GST (glutathione S-transferase); purchased Carna Biosciences
The assay is described as follows: Syk enzyme assay. Format: biochemical. Conditions: Syk enzyme assay, Test Example 1; read-out: IC50 of Syk-inhibitory activity. The method, boiled down: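 IC50 values come from a time-resolved FRET readout (615 and 665 nm) of substrate phosphorylation, measured after an EDTA stop and 1 h antibody binding. The kinase reaction ran 40 min at room temperature with 27 μM ATP and 0.4 μM biotin-peptide, following a 15 min compound preincubation with baculovirus-made GST-full-length human Syk.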

For `CCCC[C@@H](Nc1nc(Nc2ccnc(OC)c2)c(C(N)=O)cc1F)[C@H](C)N` [Example 006-406, 6-(((2S,3R)-2-aminoheptan-3-yl)amino)-5-fluoro-2-((2-methoxypyridin-4-yl)amino)nicotinamide], the IC50 with THP-1 cells was 65 to 130 nM; in assay [1], less than 10 nM.
Regarding `CCC[C@@H](Nc1nc(Nc2cnc(C)c(C)c2)c(C(N)=O)cc1F)[C@H](C)N` [Example 006-296, 6-(((2S,3R)-2-aminohexan-3-yl)amino)-2-((5,6-dimethylpyridin-3-yl)amino)-5-fluoronicotinamide], the IC50 in the assay with THP-1 cells was 65 to 130 nM; in assay [1] it was less than 10 nM.
On the same counts, the results for `COc1cccc(-c2cncc(Nc3nc(N[C@@H]4CCCC[C@@H]4N)c(F)cc3C(N)=O)c2)c1F` (relative stereo) [Example 004-197, 6-(cis-2-aminocyclohexylamino)-5-fluoro-2-((5-(2-fluoro-3-methoxyphenyl)pyridin-3-yl)amino)nicotinamide] are 65 to 130 nM and less than 10 nM.
`CCn1ncc2cc(Nc3nc(N[C@H](c4ccccc4)[C@H](C)N)c(F)cc3C(N)=O)ccc21` [Example 006-516, 6-(((1R,2S)-2-amino-1-phenylpropyl)amino)-2-((1-ethyl-1H-indazol-5-yl)amino)-5-fluoronicotinamide]: the IC50 with THP-1 cells was less than 65 nM; in assay [1], less than 10 nM.
On the same counts, the results for `CC(C)C(N)CNc1nc(Nc2ccc3ncccc3c2)c(C(N)=O)cc1F` (stereo not shown) [Example 014-002] are less than 65 nM and less than 10 nM.
The like results for `Cn1ncc2cc(Nc3nc(N[C@@H]4CCCC[C@@H]4N)c(F)cc3C(N)=O)cnc21` [Example 004-213] were, in that order, 65 to 130 nM and 10 to 50 nM.
The like results for `CC[C@@H](Nc1nc(Nc2ccnc(-c3ccc(OC)cc3)c2)c(C(N)=O)cc1F)[C@H](C)N` [Example 006-331, 6-(((2S,3R)-2-aminopentan-3-yl)amino)-5-fluoro-2-((2-(4-methoxyphenyl)pyridin-4-yl)amino)nicotinamide] were, in that order, 65 to 130 nM and less than 10 nM.
Turning to `C[C@H](N)[C@@H](CC1CC1)Nc1nc(Nc2cccc3c2cnn3C)c(C(N)=O)cc1F` [Example 006-356, 6-(((2R,3S)-3-amino-1-cyclopropylbutan-2-yl)amino)-5-fluoro-2-((1-methyl-1H-indazol-4-yl)amino)nicotinamide], the IC50 in the assay with THP-1 cells is less than 65 nM; in assay [1], less than 10 nM.
The like results for `Cc1cccc(Nc2nc(NC[C@H](C)N)c(F)cc2C(N)=O)c1` [Example 006-099] were, in that order, less than 65 nM and 10 to 50 nM.
The like results for `COCCn1cc2cc(Nc3nc(N[C@@H]4CCCC[C@@H]4N)c(F)cc3C(N)=O)ccc2n1` (relative stereo) [Example 004-094, 6-(cis-2-aminocyclohexylamino)-5-fluoro-2-((2-(2-methoxyethyl)-2H-indazol-5-yl)amino)-nicotinamide] were, in that order, 130 to 200 nM and less than 10 nM.
On the same counts, the results for `NC(=O)c1cc(F)c(NC2CCCCC2N)nc1Nc1cncc(-c2ccc3cnccc3c2)c1` (stereo not shown) [Example 002-190] are 130 to 200 nM and less than 10 nM.
Take `CCOc1cc(Nc2nc(NC3CCCCC3N)c(F)cc2C(N)=O)ccn1` (stereo not shown) [Example 002-060]: the figures for the IC50 (in the assay on THP-1 cells; in assay [1]) were 65 to 130 nM and less than 10 nM, respectively.
The like results for `CC(C)C[C@H](CN)Nc1nc(Nc2cnc3c(N)cccc3c2)c(C(N)=O)cc1F` [Example 004-196, (R)-6-((1-amino-4-methylpentan-2-yl)amino)-2-((8-aminoquinolin-3-yl)amino)-5-fluoronicotinamide] were, in that order, 130 to 200 nM and less than 10 nM.
The like results for `N#Cc1ccc(-c2cncc(Nc3nc(NC4CCCCC4N)c(F)cc3C(N)=O)c2)cc1` (stereo not shown) [Example 002-173] were, in that order, 130 to 200 nM and 10 to 50 nM.
The like results for `C[C@H](N)[C@H](Nc1nc(Nc2ccc3c(c2)c(F)nn3C)c(C(N)=O)cc1F)C1CC1` [Example 006-577, 6-(((1R,2S)-2-amino-1-cyclopropylpropyl)amino)-2-((3-fluoro-1-methyl-1H-indazol-5-yl)amino)-5-fluoronicotinamide] were, in that order, less than 65 nM and less than 10 nM.
As to `CCC[C@@H](Nc1nc(Nc2cncc(-c3cccc(OC)c3F)c2)c(C(N)=O)cc1F)[C@H](C)N` [Example 006-286, 6-(((2S,3R)-2-aminohexan-3-yl)amino)-5-fluoro-2-((5-(2-fluoro-3-methoxyphenyl)pyridin-3-yl)amino)nicotinamide], the IC50 with THP-1 cells was less than 65 nM; in assay [1] it was less than 10 nM.
Turning to `CCOc1nn(CC)c2ccc(Nc3nc(N[C@H](CC4CC4)[C@H](C)N)c(F)cc3C(N)=O)cc12` [Example 006-591, 6-(((2R,3S)-3-amino-1-cyclopropylbutan-2-yl)amino)-2-((3-ethoxy-1-ethyl-1H-indazol-5-yl)amino)-5-fluoronicotinamide], the IC50 is 130 to 200 nM with THP-1 cells and less than 10 nM in assay [1].
On the same counts, the results for `CCC[C@@H](Nc1nc(Nc2ccnc(-c3ccc(OC)cc3)c2)c(C(N)=O)cc1F)[C@H](C)N` [Example 006-335, 6-(((2S,3R)-2-aminohexan-3-yl)amino)-5-fluoro-2-((2-(4-methoxyphenyl)pyridin-4-yl)amino)nicotinamide] are 130 to 200 nM and less than 10 nM.
The like results for `COc1nn(C)c2ccc(Nc3nc(N[C@H](C4CC4)[C@H](C)N)c(F)cc3C(N)=O)cc12` [Example 006-589, 6-(((1R,2S)-2-amino-1-cyclopropylpropyl)amino)-5-fluoro-2-((3-methoxy-1-methyl-1H-indazol-5-yl)amino)nicotinamide] were, in that order, 65 to 130 nM and less than 10 nM.
The like results for `CCc1ncc(Nc2nc(N[C@@H]3CCCC[C@@H]3N)c(F)cc2C(N)=O)cc1C` [Example 006-502, 6-(((1R,2S)-2-aminocyclohexyl)amino)-2-((6-ethyl-5-methylpyridin-3-yl)amino)-5-fluoronicotinamide] were, in that order, 65 to 130 nM and less than 10 nM.
`NC(=O)c1cc(F)c(NC2CCCCC2N)nc1Nc1ccc2c(cnn2CCF)c1` (stereo not shown) [Example 002-200]: the IC50 is less than 65 nM in the assay with THP-1 cells and less than 10 nM in assay [1].
As for `NC(=O)c1cc(F)c(N[C@@H]2CCCC[C@@H]2N)nc1Nc1cnc2c(c1)OCCO2` (relative stereo) [Example 004-161, 6-(cis-2-aminocyclohexylamino)-2-((2,3-dihydro-[1,4]dioxino[2,3-b]pyridin-7-yl)amino)-5-fluoronicotinamide], the figures for the IC50 (in the assay with THP-1 cells; in assay [1]) were 130 to 200 nM and 10 to 50 nM, respectively.
On the same counts, the results for `COCCOc1cc(Nc2nc(N[C@H](CC(C)C)[C@H](C)N)c(F)cc2C(N)=O)ccn1` [Example 006-411, 6-(((2S,3R)-2-amino-5-methylhexan-3-yl)amino)-5-fluoro-2-((2-(2-methoxyethoxy)pyridin-4-yl)amino)nicotinamide] are 130 to 200 nM and less than 10 nM.
On the same counts, the results for `Cn1nc(F)c2cc(Nc3nc(NC4CCCCC4N)c(F)cc3C(N)=O)ccc21` (stereo not shown) [Example 002-196] are 65 to 130 nM and less than 10 nM.
With `NC(=O)c1cc(F)c(NC2CCCCC2N)nc1Nc1ccc2cnn(CCF)c2c1` (stereo not shown) [Example 002-201], the IC50 in the assay on THP-1 cells was 65 to 130 nM; in assay [1] it was less than 10 nM.
For the molecule `NC(=O)c1cc(F)c(NC2CCCCC2N)nc1Nc1cccc2[nH]ncc12` (stereo not shown) [Example 002-025], the IC50 in the assay on THP-1 cells was 65 to 130 nM; in assay [1] it was less than 10 nM.
On the same counts, the results for `Cc1ncc(Nc2nc(N[C@H](CC(C)C)[C@H](C)N)c(F)cc2C(N)=O)cc1-n1nccn1` [Example 006-386, 6-(((2S,3R)-2-amino-5-methylhexan-3-yl)amino)-5-fluoro-2-((6-methyl-5-(2H-1,2,3-triazol-2-yl)pyridin-3-yl)amino)nicotinamide] are less than 65 nM and less than 10 nM.
The like results for `NC(=O)c1cc(F)c(NC2CCCCC2N)nc1Nc1cccc2nn(CC3CC3)cc12` (stereo not shown) [Example 002-032] were, in that order, 130 to 200 nM and less than 10 nM.
The like results for `CCOc1nn(CC)c2ccc(Nc3nc(N[C@@H]4CCCC[C@@H]4N)c(F)cc3C(N)=O)cc12` [Example 006-590, 6-(((1R,2S)-2-aminocyclohexyl)amino)-2-((3-ethoxy-1-ethyl-1H-indazol-5-yl)amino)-5-fluoronicotinamide] were, in that order, 130 to 200 nM and less than 10 nM.
Consider `Cc1cncc(Nc2nc(NC[C@H](C)N)c(F)cc2C(N)=O)c1` [Example 006-094, (S)-6-((2-aminopropyl)amino)-5-fluoro-2-((5-methylpyridin-3-yl)amino)nicotinamide], for which the IC50 with THP-1 cells was in the range of 65 to 130 nM; in assay [1], 10 to 50 nM.
On to `CCC[C@@H](Nc1nc(Nc2ccnc(-c3cccc(OC)c3F)c2)c(C(N)=O)cc1F)[C@H](C)N` [Example 006-289, 6-(((2S,3R)-2-aminohexan-3-yl)amino)-5-fluoro-2-((2-(2-fluoro-3-methoxyphenyl)pyridin-4-yl)amino)nicotinamide], for which the IC50 is less than 65 nM in the assay on THP-1 cells and less than 10 nM in assay [1].
The like results for `C[C@H](N)CNc1nc(Nc2cccc(-n3nccn3)c2)c(C(N)=O)cc1F` [Example 006-097, (S)-2-((3-(2H-1,2,3-triazol-2-yl)phenyl)amino)-6-((2-aminopropyl)amino)-5-fluoronicotinamide] were, in that order, less than 65 nM and less than 10 nM.

The values above are taken from US8895585B2, “Nicotinamide derivative or salt thereof” (FUJIFILM Corporation, priority 2010, dated 2014).
